{"source": "PubChem BioAssay (NCI)", "tested_on": "P388 leukemia", "test": "NCI tumour cell line growth inhibition, 48 h", "note": "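Grown in 96-well plates, cells were treated for 48 hours with each compound at five concentrations. Insufficient inhibition: endpoint recorded as highest concentration tested. The concentration for full growth arrest is given as TGI.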"}
{"smiles": "O=S(=O)(O)O", "values": [{"measurement": "TGI", "value": "> 1820", "unit": "µM"}]}
